Test results: ChEMBL document CHEMBL2016451, “Antimycobacterial activity of bisbenzylisoquinoline alkaloids from Tiliacora triandra against multidrug-resistant isolates of Mycobacterium tuberculosis” (Bioorg Med Chem Lett, 2012)
Values after ≈ are worked out from the molar mass of the structure shown.

How the values were obtained:
[1] = system: Mycobacterium tuberculosis; test: Antimycobacterial activity against Mycobacterium tuberculosis H37Rv after 16 to 24 hrs by alamar blue assay; assay type: functional
MRC5 [2] = test: Cytotoxicity against human MRC5 cells at 2.1 ug/ml by MTT assay; assay type: cell-based
MRC5 [3] = test: Cytotoxicity against human MRC5 cells at 6 ug/ml by MTT assay; assay type: cell-based
MRC5 [4] = test: Cytotoxicity against human MRC5 cells at 2 ug/ml by MTT assay; assay type: cell-based
MRC5 [5] = test: Cytotoxicity against human MRC5 cells by MTT assay; assay type: cell-based
[6] = system: Mycobacterium tuberculosis; test: Antimycobacterial activity against p-aminosalicylic acid-resistant Mycobacterium tuberculosis H37Rv ATCC 35821 after 16 to 24 hrs by alamar blue assay; assay type: functional
MRC5 [7] = test: Cytotoxicity against human MRC5 cells at 1 ug/ml by MTT assay; assay type: cell-based
[8] = system: Mycobacterium tuberculosis; test: Antimycobacterial activity against Mycobacterium tuberculosis H37Ra after 16 to 24 hrs by alamar blue assay; assay type: functional

## COc1ccc2cc1-c1cc(ccc1O)C[C@@H]1NCCc3cc4c(cc31)Oc1c(c(OC)cc3c1[C@H](C2)N(C)CC3)O4
[1]
  MIC: 3.1 µg/mL (≈ 5.51 µM)
MRC5 [2]
  Activity: Non-toxic
MRC5 [3]
  Activity: Non-toxic
MRC5 [4]
  Activity: Non-toxic
MRC5 [5]
  IC50: 3.8 µg/mL (≈ 6.75 µM)
[6]
  MIC: 1.5 µg/mL (≈ 2.67 µM)
MRC5 [7]
  Activity: Non-toxic
[8]
  MIC: 3.1 µg/mL (≈ 5.51 µM)

## COc1ccc2cc1-c1cc(cc(Br)c1O)C[C@H]1c3cc4c(cc3CCN1C)Oc1c(OC)cc3c(c1O4)[C@H](C2)N(C)CC3
[1]
  MIC: 3.1 µg/mL (≈ 4.73 µM)
MRC5 [2]
  Activity: Non-toxic
MRC5 [3]
  Activity: Non-toxic
MRC5 [4]
  Activity: Non-toxic
MRC5 [5]
  IC50: 20 µg/mL (≈ 30.5 µM)
[6]
  MIC: 1.5 µg/mL (≈ 2.29 µM)
MRC5 [7]
  Activity: Non-toxic
[8]
  MIC: 6.2 µg/mL (≈ 9.46 µM)

## COc1ccc2cc1-c1cc(ccc1O)C[C@H]1c3cc4c(cc3CCN1C)Oc1c(OC)cc3c(c1O4)[C@@H](C2)N(C)CC3 [TILIACORINE]
[1]
  MIC: 3.1 µg/mL (≈ 5.38 µM)
MRC5 [2]
  Activity: Non-toxic
MRC5 [3]
  Activity: Non-toxic
MRC5 [4]
  Activity: Non-toxic
MRC5 [5]
  IC50: 3.87 µg/mL (≈ 6.71 µM)
[6]
  MIC: 3.1 µg/mL (≈ 5.38 µM)
MRC5 [7]
  Activity: Non-toxic
[8]
  MIC: 3.1 µg/mL (≈ 5.38 µM)

## COc1ccc2cc1-c1cc(ccc1O)C[C@H]1c3cc4c(cc3CCN1C)Oc1c(OC)cc3c(c1O4)[C@H](C2)N(C)CC3 [TILIACORININE]
[1]
  MIC: 6.2 µg/mL (≈ 10.8 µM)
MRC5 [2]
  Activity: Non-toxic
MRC5 [3]
  Activity: Non-toxic
MRC5 [4]
  Activity: Non-toxic
MRC5 [5]
  IC50: 3.13 µg/mL (≈ 5.43 µM)
[6]
  MIC: 3.1 µg/mL (≈ 5.38 µM)
MRC5 [7]
  Activity: Non-toxic
[8]
  MIC: 3.1 µg/mL (≈ 5.38 µM)
